Results reported in patent US20130123364A1 (priority 2011, published 2013).
“Also recorded” adds a separate entry of the source.

Tested on: lung alveoli of mice damaged by toxic tobacco smoke exposure
Assay: Mouse model of intoxication by chronic inhalation of tobacco smoke, L-NIL in drinking water
Assay type: in vivo
Protocol: The regeneration and healing of the lung alveoli by L-NIL is shown in a mouse model of intoxication by chronic inhalation of tobacco smoke. In this model, mice are exposed to a stream of tobacco smoke in a concentration of 140 mg/m^3 for 6 h per day, 5 days a week over a period of up to 8 month.
The structural and functional pulmonary changes due to toxic smoke exposure were quantified with techniques suitable for this purpose. To assess the degree of alveolar damage, the mean linear intercept, alveolar septal wall thickness and the air space volume was quantified.
Parameters for the extent of vascular remodeling comprise the measurement of vascular wall thickness, staining for alpha-smooth muscle actin and von-Willebrand factor as well as the mean cross-sectional area of the vessels.
Functional measurements include the quantification of the lung function in spontaneously breathing as well as artificially ventilated mice with respect to airway resistance, lung compliance and volume flow. To evaluate functional changes of the vessels, lungs are investigated in an isolated perfused and ventilated experimental set-up, and pulmonary vascular resistance and reactivity are measured. The vascular reactivity is determined by quantifying the extent of vasoconstriction after addition of phenylephrine and can be deduced from dose/effect curves.
In a second experiment, L-NIL was administered orally via drinking water in a concentration of 600 μg/ml for a period for 3 months to treat mice with alveolar damage/destruction as a result of 8 months of toxic smoke exposure.

[1] = curative: oral L-NIL in drinking water 600 μg/ml for 3 months after 8 months of toxic smoke exposure

[H]/N=C(/C)NCCCC[C@H](N)C(=O)O [L-NIL, N^6-(1-iminoethyl)-L-lysine]
Proliferation, PCNA-positive cells in lung sections (FIGS. 5A to 5D) (L-NIL for 3 month after lung exposure to toxic smoke for 8 months): induction of proliferation | Elastic fibers network, elastin-stained lungs (FIGS. 3A to 3D) (L-NIL treatment after destruction by toxic tobacco smoke exposure): regeneration of the elastic fibers network | Total number of alveoli assessed by quantitative stereology (FIG. 2) (L-NIL treatment after toxic tobacco smoke exposure): regeneration of alveoli | Lung function [1]: lung function improvement | Regeneration of alveolar lung structure [1]: regeneration of the damaged or destroyed lung alveoli; also recorded: complete regeneration of the alveolar lung structure | Protection against alveolar damage/destruction (alveolar morphometry and lung functional measurements) (preventive: oral L-NIL in drinking water 600 μg/ml in parallel to smoke exposure over 8 months): complete protection against alveolar damage/destruction
